Laboratory results reported in patent publication US6569686B2, “Measurement of solubility-pH profiles” (Pion, Inc., priority 2000, dated 2003).
≈ marks a conversion by molar mass, not a printed value. Where “and” joins values, the source holds several entries; their conditions need not be identical. Equal values may be shown once. Read-outs that look alike come from different tables or passages of the source. Marks after values point to notes of the source that are not given here.

How the values were obtained:
[1] = no DMSO, cited from earlier work; for Shake-Flask So: literature / private correspondence
[2] = literature (footnotes a, b); cited from earlier work
[3] = true aqueous intrinsic solubility corrected from pKa shifts; assay type: physicochemical; details: for solubility: aqueous buffer, kinetic from dmso stock; for log So (corrected): log of μg/mL, horizontal asymptote of dashed curve in FIG. 8
[4] = solubility-pH by cosolvent method (50% v/v 1-propanol), 96-well UV; assay type: physicochemical; details: universal buffer solution, aqueous buffer, kinetic from dmso stock, 0.26% v/v DMSO, read-out: So^APP (apparent intrinsic solubility)
Method: The “sample” track on the left side of FIG. 4a depicts a series of steps leading up to the taking of the sample spectrum in a water-cosolvent solution. A known quantity of sample (37) is added in a known volume of the universal buffer solution of known pH (38), the amount of said sample being sufficient to cause precipitation to occur in the formed saturated solution (39). After waiting a period of time to allow the saturated solution to reach a desired steady state, the solution is filtered (40) to remove the solid, and obtain a clear solution (41).
A volume Y of a water-miscible cosolvent 42 is added to a volume Z of solution 41 to produce a new solution 43, in which the compound is diluted by Z/(Y+Z), from its concentration in solution 41. The spectrum of solution 43 is then immediately taken by the UV spectrophotometer (44), to minimize evaporation of the water-cosolvent solution. The mathematical treatment of the spectral data yields the area-under-the-curve of the filtered cosolvent sample solution (43), AUCS^COS. […]
18. As soon as the solutions are mixed in step 17, the robot transfers 5 μL from the diluted sample stock solution (using the 20 μL tips) to the blank solutions whose spectra had just been read in step 16: 14→17 (Sd→U). […]
The solubility is calculated according to equation (8). The results for phenazopyridine stated in Table 2 were determined by the cosolvent method.

[5] = true pKa of the compounds (commercial pKa instruments / literature); assay type: physicochemical; details: pION unpublished data (footnote f)
Excerpt: For ionizable molecules in dilute solutions (where salt precipitation may be ignored), when the log (logarithm) of the measured solubility is plotted vs. pH, the curve is bilinear, with one segment having a zero slope and the other segment having a unit slope (positive for acids and negative for bases). […]. In a simple aqueous equilibrium system, the pH where the asymptotes of the horizontal and diagonal segments intersect is equal to the pKa of the solute. Under such ideal circumstances, it is possible to determine the pKa and the intrinsic aqueous solubility, So, of the compound from the crossing of the segments [Z. T. Chowhan, J. Pharm. Sci. 1978, 67, 1257-1260; W. H. Streng, H. G. H. Tan, Int. J. Pharm. 1985, 25, 135-145]. Such pKa values can be directly measured by commercially-available devices [C. D. Bevan, A. P. Hill, D. P. Reynolds, Patent Cooperation Treaty, WO 99/13328, Mar. 18, 1999; Sirius Analytical Instruments Ltd., UK].
(2) Also, a novel and simple computational method is developed to extract the aqueous intrinsic solubilities of drug molecules from data altered by DMSO-drug binding, or drug-drug aggregation reactions, or drug reactions with non-ionizable excipients, using the difference between the apparent pKa measured by the analytical device and the true pKa measured by analytical devices available commercially (e.g., from Sirius Analytical Instruments Ltd., Forest Row, E. Sussex, UK).
We discovered that if one determines the pKa^APP (in the presence of the DMSO effect) in the solubility assay, and subtracts from it the true pKa (determined using commercial instruments such as those from Sirius, UK), the difference, when subtracted from the logarithm of the apparent (DMSO-distorted) solubility, So^APP, yields the true aqueous solubility constant:
Since the pKas of the studied compounds are known (Table 2), it was possible to calculate the pKa shifts (Δ values in Table 1).

[6] = intrinsic solubility by pSOL Model 3 acid-base titrator; assay type: physicochemical; details: pION unpublished data (footnote f)
Method: Solubility determinations are illustrated with 15 sparingly-soluble generic, mostly-ionizable drugs (FIG. 1), covering about three orders of magnitude in solubilities, with the lowest value being about 0.1 μg/mL (terfenadine at high pH). The ionizable bases include amiloride, amitriptyline, chlorpromazine, miconazole, nortriptyline, phenazopyridine, propranolol, and terfenadine. […] Piroxicam was picked as an example of an ampholyte, and griseofulvin as an example of a non-ionizable molecule. The results of the solubility measurements were compared to literature equilibrium solubility-pH values from reliable sources, and to values determined by the pSOL Model 3 (pION) acid-base titrator [A. Avdeef, C. M. Berger, C. Brownell, Pharm . Res. 2000, 17, 85-89].

[7] = apparent pKa from fitted log S vs. pH curve; assay type: physicochemical; details: saturated solutions; for pKa shift Δ: pKa shift Δ = pKa^APP − pKa, heading: pKa shift Δ = pKa^APP − pKa; for pKa shift Δ / pKa shift Δ (apparent pKa minus true pKa): DMSO-containing saturated solutions (FIG. 8); for pKa shift Δ (apparent pKa minus true pKa): read-out: pKa shift Δ = pKa^APP − pKa
[8] = solubility-pH by aqueous dilution method, 96-well UV; assay type: physicochemical; details: kinetic from dmso stock
[9] = literature (Roseman, Yalkowsky 1973); cited from earlier work
[10] = true pKa; literature sources (footnotes a, b, h); cited from earlier work
[11] = pH 3
[12] = saturated pH-buffered aqueous solution (universal buffer), read-out: corrected So (intrinsic solubility corrected for drug-DMSO/drug-aggregate effects)
[13] = universal buffer solution, 0.5% v/v DMSO, 4 h shaking, read-out: So^APP (apparent intrinsic solubility)
[14] = pKa (I = 0.012 M, 50 vol % CH3CN)
[15] = read-out: corrected So (intrinsic solubility corrected for drug-DMSO/drug-aggregate effects)

In the case of `NS(=O)(=O)c1cc(C(=O)O)c(NCc2ccco2)cc1Cl` [furosemide], the “Shake-Flask So” value [1] is given as 12.0^b μg/mL and the “pSOL So” value [2] is given as 5.9^b μg/mL.

In the case of `OB(O)O` [Boric Acid, boric acid], the pKa (physchem; pH 3, pKa (I = 0.020M)) is reported as 9.13.

`Nc1ccc(/N=N/c2ccccc2)c(N)n1` [phenazopyridine] showed a solubility ([3]; saturated pH-buffered aqueous solution (universal buffer), from So^APP in 0.26% v/v DMSO, cosolvent method, read-out: corrected So (intrinsic solubility corrected for drug-DMSO/drug-aggregate effects)) of 12.2 µg/mL, a solubility at 4 h [4] of 12.2 µg/mL (≈ 57.2 µM) and a pKa [5] of 5.15. The “pSOL So” value [6] was 14.3^f μg/mL, the pKa shift Δ [7] was no less than 0 and the pKa ([7]; saturated solutions containing 0.26% v/v DMSO, read-out: apparent pKa (pKa^APP)) was 5.83.

For `O=C(O)c1ccc2ccccc2c1` [2-naphthoic acid], the “Shake-Flask So” value [1] is given as 22.4^g μg/mL, the solubility [3, 12] is given as 20.2 µg/mL and the solubility at 4 h [8, 13] is given as 33.3 µg/mL (≈ 193 µM). For the same compound, the pKa [5] was 4.16 and the pKa shift Δ (apparent pKa minus true pKa) [7] was greater than 0.

For prostaglandin F2α, the “pKa shift Δ = pKa^APP − pKa” value [9] is listed as “Δ < or = 0”.

`CC(C)NCC(O)COc1cccc2ccccc12` (stereo not drawn) [propranolol] gave a solubility at 4 h ([8]; aqueous buffer, in 0.5% v/v DMSO, read-out: solubility) of roughly 100 µg/mL (≈ 386 µM).

For `CN(C)CCC=C1c2ccccc2CCc2ccccc21` [amitriptyline], the “Shake-Flask So” value [1] is listed as 2.0^a μg/mL, the solubility [3, 12] is listed as 3 µg/mL and the “pSOL So” value [2] is listed as 2.0^a μg/mL. For the same compound, the solubility at 4 h [8, 13] was 56.9 µg/mL (≈ 205 µM), the pKa shift Δ [7] was less than 0 and the pKa [10] was 9.45^a.

In the case of `O=S(=O)(O)CCN1CCN(CCO)CC1` [HEPES, 4-(2-hydroxyethyl)-1-piperazineethanesulfonic acid], the “pKa (I = 0.020M)” value [11] is reported as 7.48.

In the case of `O=C(O)Cc1ccccc1Nc1c(Cl)cccc1Cl` [diclofenac], the “Shake-Flask So” value [1] is given as 0.6^b μg/mL, the solubility [3, 12] is given as 3.8 µg/mL and the “pSOL So” value [2] is given as 0.8^b μg/mL. For the same compound, the solubility at 4 h [8, 13] was 22.6 µg/mL (≈ 76.3 µM).

Compound `NCCS(=O)(=O)O` [Taurine, 2-aminoethanesulfonic acid] has a pKa (physchem; [14]) of 8.95.

In the case of `COc1ccc2c(c1)c(CC(=O)O)c(C)n2C(=O)c1ccc(Cl)cc1` [indomethacin], the “Shake-Flask So” value [1] is given as 2.0 µg/mL and 1 µg/mL, the solubility [3, 12] is given as 4.1 µg/mL and the “pSOL So” value [2] is given as 2.0^a μg/mL. It also gave a solubility at 4 h [8, 13] of 7.2 µg/mL (≈ 20.1 µM).

For `CC(C)(C)c1ccc(C(O)CCCN2CCC(C(O)(c3ccccc3)c3ccccc3)CC2)cc1` (stereo not drawn) [terfenadine], the solubility ([3]; at high pH, read-out: solubility (lowest value)) was roughly 0.1 µg/mL, the solubility [3, 12] was 0.1 µg/mL and the solubility at 4 h [8, 13] was 4.4 µg/mL (≈ 9.33 µM). For the same compound, the pKa [5] was 9.53, the “pSOL So” value [6] was 0.1^f μg/mL and the pKa shift Δ (apparent pKa minus true pKa) [7] was less than 0.

With `CNCCC=C1c2ccccc2CCc2ccccc21` [nortriptyline] the solubility at 4 h ([8]; universal buffer solution, in 0.5% v/v DMSO, read-out: solubility) was greater than 98 µg/mL.

Work on `Clc1ccc(COC(Cn2ccnc2)c2ccc(Cl)cc2Cl)c(Cl)c1` (stereo not drawn) [miconazole] yielded a solubility [3, 12] of 1.6 µg/mL, a solubility at 4 h [8, 13] of 11.1 µg/mL (≈ 26.7 µM) and a pKa [5] of 6.07. For the same compound, the “pSOL So” value [6] was 0.7^f μg/mL and the pKa shift Δ (apparent pKa minus true pKa) [7] was less than 0.

`CCCN(CCC)S(=O)(=O)c1ccc(C(=O)O)cc1` [probenecid] showed a solubility [3, 12] of 0.7 µg/mL, a solubility at 4 h [8, 13] of 4.6 µg/mL (≈ 16.1 µM) and a pKa [5] of 3.01. For the same compound, the “pSOL So” value [6] was 0.6^f μg/mL and the pKa shift Δ (apparent pKa minus true pKa) [7] was greater than 0.

For `COC1=CC(=O)C[C@@H](C)[C@]12Oc1c(Cl)c(OC)cc(OC)c1C2=O` [griseofulvin], the “Shake-Flask So” value [1] is listed as 9^d μg/mL, the solubility [3, 12] is listed as 20.2 µg/mL and the solubility at 4 h [8, 13] is listed as 37.6 µg/mL (≈ 107 µM). For the same compound, the pKa [10] was “non-”.

`O=S(=O)(O)CCN1CCOCC1` [MES monohydrate, 4-morpholine-ethanesulfonic acid] gave a pKa (physchem; pH 3, pKa (I = 0.020M)) of 6.08 and a pKa (physchem; [14]) of 6.24.

In the case of `CN1C(C(=O)Nc2ccccn2)=C(O)c2ccccc2S1(=O)=O` [piroxicam], the “pKa deduced from literature solubility data” value ([1]; Jinno et al.) is given as 5.63, the “Shake-Flask So” value [1] is given as 9.1^i μg/mL and 8-16^j μg/mL and the solubility [3, 15] is given as 1.1 µg/mL. The “log So (corrected)” value [3] was 0.041, the solubility at 4 h [8, 13] was 10.5 µg/mL (≈ 31.7 µM) and the pKa ([7]; 0.5% v/v DMSO, solid curve in FIG. 8, read-out: apparent pKa (pKa^APP)) was 6.05. It also gave a pKa shift Δ [7] of 0.98.

In the case of `O=C(O)CO` [Glycolic Acid, glycolic acid], the pKa (physchem; [14]) is reported as 4.56.

With `CN(C)CCCN1c2ccccc2Sc2ccc(Cl)cc21` [chlorpromazine] the solubility [3, 15] was 3.4 µg/mL, the “log So (corrected)” value [3] was 0.528 and the solubility at 4 h [8, 13] was 19.4 µg/mL (≈ 60.8 µM).
